{
  "source": "patent US9421269B2",
  "about": "“Saponin nano micelle, preparing method, application and pharmaceutical composition thereof” (FUJIAN SOUTH PHARMACEUTICAL CO., LTD, priority 2013, dated 2016)",
  "assay": "appearance of drug-loading micelle solution versus contrast sample",
  "format": "physicochemical",
  "conditions": "in 10 ml absolute ethanol",
  "data": [
    {"smiles": "Oc1ccc(C=Cc2cc(O)cc(O)c2)cc1", "note": "[resveratrol]", "values": [
      {"measurement": "appearance of solution", "value": "murky"}
    ]}
  ]
}
